Reference: ChEMBL document CHEMBL3885881, “DrugMatrix”

Organism: Rattus norvegicus
Experiment: DrugMatrix - Regimen: Daily Repeat
Assay type: toxicity, organism-based, Sprague-Dawley
Set-up: regimen Daily Repeat, gender Male, age 6-8 weeks
Conditions: in vivo, po, route oral GAVAGE, vehicle .5 % CMC; for ABSOLUTE BASOPHIL / ABSOLUTE EOSINOPHIL / ABSOLUTE LYMPHOCYTE / ABSOLUTE MONOCYTE / ABSOLUTE SEGMENTED NEUTROPHIL / BASOPHIL / EOSINOPHIL / ERYTHROCYTE COUNT / HEMATOCRIT / HEMOGLOBIN / LEUKOCYTE COUNT / LYMPHOCYTE / MEAN CORPUSCULAR HEMOGLOBIN / MEAN CORPUSCULAR HEMOGLOBIN CONCENTRATION / MEAN CORPUSCULAR VOLUME / MONOCYTE / NEUTROPHIL / NUCLEATED RED BLOOD CELLS / PLATELET COUNT: tissue Blood; for ALANINE AMINOTRANSFERASE / ALBUMIN / ALKALINE PHOSPHATASE / ASPARTATE AMINOTRANSFERASE / BLOOD UREA NITROGEN / CARBON DIOXIDE / CHLORIDE / CHOLESTEROL / CREATINE PHOSPHOKINASE / CREATININE / GLUCOSE / LACTATE DEHYDROGENASE / LIPASE / PHOSPHORUS / POTASSIUM / SODIUM / TOTAL BILIRUBIN / TOTAL PROTEIN / URIC ACID: tissue Plasma
[1] = 50 mg/kg, 120 h, dose level Low, time 5 day
[2] = 2500 mg/kg, 72 h, dose level High, time 3 day
[3] = 2500 mg/kg, 120 h, dose level High, time 5 day

Q: How did the “ABSOLUTE BASOPHIL” value [1] turn out when `CC(=O)O[C@]1(C(C)=O)CC[C@H]2[C@@H]3C=C(Cl)C4=CC(=O)[C@@H]5C[C@@H]5[C@]4(C)[C@H]3CC[C@@]21C` [CYPROTERONE ACETATE] was run?
A: 0 CELLS/uL

Q: And the “ABSOLUTE EOSINOPHIL” value [1]?
A: 24.33 CELLS/uL

Q: What about the “ABSOLUTE LYMPHOCYTE” value [1] of the same compound?
A: 7928 CELLS/uL

Q: And the “ABSOLUTE MONOCYTE” value [1]?
A: 144 CELLS/uL

Q: And the “ABSOLUTE SEGMENTED NEUTROPHIL” value [1]?
A: 637 CELLS/uL

Q: And the BASOPHIL [1]?
A: 0%

Q: What about the EOSINOPHIL [1] of the same compound?
A: 0.33%

Q: And the “ERYTHROCYTE COUNT” value [1]?
A: 5.93 x10E6/uL

Q: What about the HEMATOCRIT [1] of the same compound?
A: 37.07%

Q: What about the HEMOGLOBIN [1] of the same compound?
A: 14.9 G/DL

Q: And the “LEUKOCYTE COUNT” value [1]?
A: 8.73 x10E3/uL

Q: And the LYMPHOCYTE [1]?
A: 90.33%

Q: What about the “MEAN CORPUSCULAR HEMOGLOBIN” value [1] of the same compound?
A: 25.13 pg

Q: And the “MEAN CORPUSCULAR HEMOGLOBIN CONCENTRATION” value [1]?
A: 40.23 G/DL

Q: What about the “MEAN CORPUSCULAR VOLUME” value [1] of the same compound?
A: 62.47 fL

Q: And the MONOCYTE [1]?
A: 1.67%

Q: What about the NEUTROPHIL [1] of the same compound?
A: 7.67%

Q: And the “NUCLEATED RED BLOOD CELLS” value [1]?
A: 0 /100WBC

Q: And the “PLATELET COUNT” value [1]?
A: 1115.67 x10E3/uL

Q: And the “ALANINE AMINOTRANSFERASE” value [1]?
A: 68.33 u/L

Q: And the ALBUMIN [1]?
A: 4.4 G/DL

Q: What about the “ALKALINE PHOSPHATASE” value [1] of the same compound?
A: 339 u/L

Q: And the “ASPARTATE AMINOTRANSFERASE” value [1]?
A: 88 u/L

Q: And the “BLOOD UREA NITROGEN” value [1]?
A: 15.67 mg/dL

Q: And the “CARBON DIOXIDE” value [1]?
A: 30.33 mmol/L

Q: What about the CHLORIDE [1] of the same compound?
A: 101 MEQ/L

Q: And the CHOLESTEROL [1]?
A: 79 mg/dL

Q: And the “CREATINE PHOSPHOKINASE” value [1]?
A: 291 u/L

Q: And the CREATININE [1]?
A: 0.18 mg/dL

Q: What about the GLUCOSE [1] of the same compound?
A: 165 mg/dL

Q: And the “LACTATE DEHYDROGENASE” value [1]?
A: 169 u/L

Q: What about the LIPASE [1] of the same compound?
A: 11 u/L

Q: What about the PHOSPHORUS [1] of the same compound?
A: 12.3 mg/dL

Q: What about the POTASSIUM [1] of the same compound?
A: 5.54 MEQ/L

Q: And the SODIUM [1]?
A: 144.17 MEQ/L

Q: And the “TOTAL BILIRUBIN” value [1]?
A: 0.13 mg/dL

Q: And the “TOTAL PROTEIN” value [1]?
A: 6.5 G/DL

Q: What about the “URIC ACID” value [1] of the same compound?
A: 1.33 mg/dL

Q: And the “ABSOLUTE BASOPHIL” value [2]?
A: 0 CELLS/uL

Q: And the “ABSOLUTE EOSINOPHIL” value [2]?
A: 156.67 CELLS/uL

Q: What about the “ABSOLUTE LYMPHOCYTE” value [2] of the same compound?
A: 10772 CELLS/uL

Q: And the “ABSOLUTE MONOCYTE” value [2]?
A: 88.67 CELLS/uL

Q: What about the “ABSOLUTE SEGMENTED NEUTROPHIL” value [2] of the same compound?
A: 1249.33 CELLS/uL

Q: And the BASOPHIL [2]?
A: 0%

Q: And the EOSINOPHIL [2]?
A: 1.33%

Q: And the “ERYTHROCYTE COUNT” value [2]?
A: 5.59 x10E6/uL

Q: What about the HEMATOCRIT [2] of the same compound?
A: 36.7%

Q: And the HEMOGLOBIN [2]?
A: 14.03 G/DL

Q: And the “LEUKOCYTE COUNT” value [2]?
A: 12.27 x10E3/uL

Q: And the LYMPHOCYTE [2]?
A: 88%

Q: What about the “MEAN CORPUSCULAR HEMOGLOBIN” value [2] of the same compound?
A: 25.07 pg

Q: What about the “MEAN CORPUSCULAR HEMOGLOBIN CONCENTRATION” value [2] of the same compound?
A: 38.23 G/DL

Q: What about the “MEAN CORPUSCULAR VOLUME” value [2] of the same compound?
A: 65.63 fL

Q: And the MONOCYTE [2]?
A: 0.67%

Q: And the NEUTROPHIL [2]?
A: 10%

Q: What about the “NUCLEATED RED BLOOD CELLS” value [2] of the same compound?
A: 0.33 /100WBC

Q: What about the “PLATELET COUNT” value [2] of the same compound?
A: 1080.33 x10E3/uL

Q: What about the “ALANINE AMINOTRANSFERASE” value [2] of the same compound?
A: 69.67 u/L

Q: What about the ALBUMIN [2] of the same compound?
A: 4.07 G/DL

Q: What about the “ALKALINE PHOSPHATASE” value [2] of the same compound?
A: 424.67 u/L

Q: And the “ASPARTATE AMINOTRANSFERASE” value [2]?
A: 99.67 u/L

Q: What about the “BLOOD UREA NITROGEN” value [2] of the same compound?
A: 14.33 mg/dL

Q: What about the “CARBON DIOXIDE” value [2] of the same compound?
A: 30 mmol/L

Q: And the CHLORIDE [2]?
A: 100.67 MEQ/L

Q: And the CHOLESTEROL [2]?
A: 113.33 mg/dL

Q: And the “CREATINE PHOSPHOKINASE” value [2]?
A: 639.67 u/L

Q: What about the CREATININE [2] of the same compound?
A: 0.2 mg/dL

Q: And the GLUCOSE [2]?
A: 151.33 mg/dL

Q: And the “LACTATE DEHYDROGENASE” value [2]?
A: 603.33 u/L

Q: And the LIPASE [2]?
A: 12.67 u/L

Q: What about the PHOSPHORUS [2] of the same compound?
A: 11.2 mg/dL

Q: What about the POTASSIUM [2] of the same compound?
A: 6.3 MEQ/L

Q: And the SODIUM [2]?
A: 141.73 MEQ/L

Q: And the “TOTAL BILIRUBIN” value [2]?
A: 0.13 mg/dL

Q: What about the “TOTAL PROTEIN” value [2] of the same compound?
A: 6 G/DL

Q: What about the “URIC ACID” value [2] of the same compound?
A: 0.83 mg/dL

Q: And the “ABSOLUTE BASOPHIL” value [3]?
A: 0 CELLS/uL

Q: And the “ABSOLUTE EOSINOPHIL” value [3]?
A: 62.33 CELLS/uL

Q: What about the “ABSOLUTE LYMPHOCYTE” value [3] of the same compound?
A: 8852.33 CELLS/uL

Q: What about the “ABSOLUTE MONOCYTE” value [3] of the same compound?
A: 146.33 CELLS/uL

Q: And the “ABSOLUTE SEGMENTED NEUTROPHIL” value [3]?
A: 2339 CELLS/uL

Q: What about the BASOPHIL [3] of the same compound?
A: 0%

Q: And the EOSINOPHIL [3]?
A: 0.67%

Q: And the “ERYTHROCYTE COUNT” value [3]?
A: 5.55 x10E6/uL

Q: And the HEMATOCRIT [3]?
A: 34.3%

Q: And the HEMOGLOBIN [3]?
A: 13.77 G/DL

Q: What about the “LEUKOCYTE COUNT” value [3] of the same compound?
A: 11.4 x10E3/uL

Q: What about the LYMPHOCYTE [3] of the same compound?
A: 80%

Q: What about the “MEAN CORPUSCULAR HEMOGLOBIN” value [3] of the same compound?
A: 24.8 pg

Q: And the “MEAN CORPUSCULAR HEMOGLOBIN CONCENTRATION” value [3]?
A: 40.13 G/DL

Q: What about the “MEAN CORPUSCULAR VOLUME” value [3] of the same compound?
A: 61.87 fL

Q: And the MONOCYTE [3]?
A: 1.33%

Q: And the NEUTROPHIL [3]?
A: 18%

Q: What about the “NUCLEATED RED BLOOD CELLS” value [3] of the same compound?
A: 0.33 /100WBC

Q: And the “PLATELET COUNT” value [3]?
A: 1381.33 x10E3/uL

Q: What about the “ALANINE AMINOTRANSFERASE” value [3] of the same compound?
A: 94 u/L

Q: What about the ALBUMIN [3] of the same compound?
A: 4.3 G/DL

Q: And the “ALKALINE PHOSPHATASE” value [3]?
A: 317.67 u/L

Q: What about the “ASPARTATE AMINOTRANSFERASE” value [3] of the same compound?
A: 101.67 u/L

Q: What about the “BLOOD UREA NITROGEN” value [3] of the same compound?
A: 21.33 mg/dL

Q: And the “CARBON DIOXIDE” value [3]?
A: 23.67 mmol/L

Q: And the CHLORIDE [3]?
A: 98.67 MEQ/L

Q: What about the CHOLESTEROL [3] of the same compound?
A: 98.67 mg/dL

Q: What about the “CREATINE PHOSPHOKINASE” value [3] of the same compound?
A: 467 u/L

Q: And the CREATININE [3]?
A: 0.27 mg/dL

Q: And the GLUCOSE [3]?
A: 223 mg/dL

Q: And the “LACTATE DEHYDROGENASE” value [3]?
A: 496 u/L

Q: And the LIPASE [3]?
A: 10.67 u/L

Q: What about the PHOSPHORUS [3] of the same compound?
A: 12.8 mg/dL

Q: What about the POTASSIUM [3] of the same compound?
A: 6.34 MEQ/L

Q: What about the SODIUM [3] of the same compound?
A: 142.07 MEQ/L

Q: And the “TOTAL BILIRUBIN” value [3]?
A: 0.17 mg/dL

Q: And the “TOTAL PROTEIN” value [3]?
A: 7 G/DL

Q: What about the “URIC ACID” value [3] of the same compound?
A: 2.1 mg/dL
